Key:
[1] = system: pulmonary adenocarcinoma cell line A549; test: MTT antiproliferative assay, A549; assay type: cell-based; conditions: Homo sapiens, 72 h drug exposure, triplicate, read-out: Antiproliferative activity (IC50 ± SD) A549
From the text: (§1) Pulmonary adenocarcinoma cell lines (A549) and gastric adenocarcinoma cell lines (SGC-7901) were provided as gifts (purchased from the Cell Resource Center of Shanghai Institutes for Biological Sciences) from the China-Japan Research Institute of Medical and Pharmaceutical Sciences, Shenyang Pharmaceutical University. Fibrosarcoma cell lines (HT-1080) were purchased from the Cell Resource Center of Shanghai Institutes for Biological Sciences. All cells were maintained in DMEM containing 1% antibiotics (100 units of penicillin and […] per mL in 0.9% normal saline) and 10% foetal bovine serum in a humidified atmosphere containing 5% CO2 at 37°C.
(§2) Antiproliferative activities of CA-4 and the target compounds were measured using a colourimetric assay using 3-(4,5-dimethylthiazol-2yl-)-2,5-diphenyltetrazolium bromide (MTT). Approximately 3 × 10^4 cells were seeded in a 96-well plate. After 24 h of incubation at 37°C, cells were exposed to compounds of differing concentrations (0.0008 μg/mL, 0.004 μg/mL, 0.02 μg/mL, 0.10 μg/mL, 0.50 μg/mL, 2.5 μg/mL, 12.5 μg/mL, 62.5 μg/mL) for 72 h. After treatment, cells were washed with 1X PBS followed by addition of 100 μL of 0.05% MTT reagent to each well, followed by incubation for 4 h at 37°C. After incubation, the supernatant from each well was carefully removed and the formazan crystals were dissolved in 100 μL of DMSO. The colour density was measured spectrophotometrically at 490 nm using a microplate reader (SpectraMax Plus384, Molecular Devices Corp., USA). The percentage of cell growth inhibition was calculated as follow: inhibition ratio % = (Acontrol—Atreated) / Acontrol × 100%. The 50% inhibitory concentration (IC50) was defined as the concentration that reduced the absorbance of the untreated wells by 50% of the vehicle in the MTT assay.

[2] = system: microtubule network in SGC-7901 cells; test: Immunostaining of tubulin assembly in SGC-7901 cells; assay type: cell-based, human; conditions: 2-fold IC50 concentration (7k 0.14 μM), 48 h
Method: Microtubules were labelled using the indirect immuno-fluorescence method and were analysed by fluorescence microscopy. […] SGC-7901 cells were treated with 7k (0.14 μM) for 48 h (scale bar = 10 μm). The left, middle and right panels represent the tubulin assembly stained with FITC, DAPI and a merge of the corresponding left and middle panels, respectively. Images were taken using a confocal microscope. Immunostaining was performed to detect microtubule-associated tubulin protein after exposure to CA-4 and compound 7k. The SGC-7901 and HT-1080 cells were seeded at a density of 1 × 10^4 per well on a 24-well plate and grown for 24 h. […] The control and treated cells were fixed in acetone:methanol (1:1) for 30 min at -20°C, washed with 1X PBS, incubated for 30 min in 1X PBS containing 2% BSA, and then 0.1% Triton X-100. The primary tubulin antibody (Cell Signaling Technology, MA, USA) was diluted (1:100) with 2% BSA in 1X PBS and incubated overnight at 4°C. The cells were washed with 1X PBS to remove unbound primary antibody, and then cells were incubated for 3 h at 37°C with FITC-conjugated anti-mouse secondary antibody diluted 1:1000 with 2% BSA in PBS.

[3] = system: gastric adenocarcinoma cell line SGC-7901; test: MTT antiproliferative assay, SGC-7901; assay type: cell-based; conditions: Homo sapiens, 72 h drug exposure, triplicate, read-out: Antiproliferative activity (IC50 ± SD) SGC-7901
From the text: as §1, §2

[4] = system: three human cancer cell lines (SGC-7901, A549 and HT-1080); test: MTT antiproliferative assay, three human cancer cell lines; assay type: cell-based; conditions: HT-1080, SGC-7901, A549, 72 h, read-out: Antiproliferative IC50 values, range over the three cancer cell lines
From the text: as §1
Antiproliferative activities of CA-4 and the target compounds were measured using a colourimetric assay using 3-(4,5-dimethylthiazol-2yl-)-2,5-diphenyltetrazolium bromide (MTT). Approximately 3 × 10^4 cells were seeded in a 96-well plate. After 24 h of incubation at 37°C, cells were exposed to compounds of differing concentrations (0.0008 μg/mL, 0.004 μg/mL, 0.02 μg/mL, 0.10 μg/mL, 0.50 μg/mL, 2.5 μg/mL, 12.5 μg/mL, 62.5 μg/mL) for 72 h. […] The colour density was measured spectrophotometrically at 490 nm using a microplate reader (SpectraMax Plus384, Molecular Devices Corp., USA). The percentage of cell growth inhibition was calculated as follow: inhibition ratio % = (Acontrol—Atreated) / Acontrol × 100%. […]

[5] = system: fibrosarcoma cell line HT-1080; test: MTT antiproliferative assay, HT-1080; assay type: cell-based; conditions: Homo sapiens, 72 h drug exposure, triplicate, read-out: Antiproliferative activity (IC50 ± SD) HT-1080
From the text: as §1, §2

purified bovine tubulin = test: Tubulin assembly (polymerization) assay, cell-free, fluorescence-based; assay type: biochemical; conditions: 37°C, IC50 calculated at 80 min, three experiments, read-out: Inhibition of tubulin polymerization IC50
Method: Fig 5 Dose-response effects of CA-4 (1), 7i and 7k on the inhibition of tubulin polymerization. Purified bovine tubulin and GTP were mixed in a 96-well plate. The reaction was initiated by warming the solution from 4°C to 37°C. DMSO was used as a vehicle control. The effect on the assembly of tubulin was monitored using a plate reader at 1 min intervals for 90 min at 37°C.
The effect of compounds 7i and 7k on the polymerization of purified brain tubulin was determined employing a fluorescence-based tubulin polymerization assay kit (Cat. #BK011P, Cytoskeleton, Inc., USA) according to the manufacturer’s protocol. Tubulin was re-suspended in ice-cold G-PEM buffer (80 mM PIPES, 2 mM MgCl2, 0.5 mM EGTA, 1 mM GTP, 20% (v/v) glycerol) and added to wells on a 96-well plate containing the designated concentration of drugs or vehicle. Samples were mixed well, and tubulin assembly was monitored (emission wavelength: 450 nm; excitation wavelength: 360 nm) at 1 min intervals for 90 min at 37°C using a plate reader ([…]). IC50 values were calculated at 80 min using SPSS software in three experiments.

[6] = system: microtubule network in HT-1080 cells; test: Immunostaining of tubulin assembly in HT-1080 cells; assay type: cell-based, human; conditions: 2-fold IC50 concentration (7k 0.18 μM), 48 h
Method: Microtubules were labelled using the indirect immuno-fluorescence method and were analysed by fluorescence microscopy. […] HT-1080 cells were treated with 7k (0.18 μM) for 48 h (scale bar = 10 μm). The left, middle and right panels represent tubulin assembly stained with FITC, DAPI and a merge of the corresponding left and middle panels, respectively. Images were taken using a confocal microscope. Immunostaining was performed to detect microtubule-associated tubulin protein after exposure to CA-4 and compound 7k. The SGC-7901 and HT-1080 cells were seeded at a density of 1 × 10^4 per well on a 24-well plate and grown for 24 h. […] The control and treated cells were fixed in acetone:methanol (1:1) for 30 min at -20°C, washed with 1X PBS, incubated for 30 min in 1X PBS containing 2% BSA, and then 0.1% Triton X-100. The primary tubulin antibody (Cell Signaling Technology, MA, USA) was diluted (1:100) with 2% BSA in 1X PBS and incubated overnight at 4°C. The cells were washed with 1X PBS to remove unbound primary antibody, and then cells were incubated for 3 h at 37°C with FITC-conjugated anti-mouse secondary antibody diluted 1:1000 with 2% BSA in PBS.

Structure (SMILES)	IC50 [1] [µM]	Effect on microtubule network (immunofluorescence), SGC-7901 [2]	IC50 [3] [µM]	IC50 [4] [µM]	IC50 [5] [µM]	IC50 (purified bovine tubulin) [µM]	melting point [°C]	Effect on microtubule network (immunofluorescence), HT-1080 [6]
COc1ccc(-c2cc(C)nn2-c2cc(OC)c(OC)c(OC)c2)cc1N [Compound 7k, 3-Methyl-5-(3-amino-4-methoxyphenyl)-1-(3,4,5-trimethoxyphenyl)-1H-pyrazole]	0.096 ± 0.011	disruption of the tubulin network	0.076 ± 0.009	0.076 to 0.12	0.122 ± 0.013	1.7	129 to 130	disruption of the tubulin network
COc1ccc(/C=C\c2cc(OC)c(OC)c(OC)c2)cc1O [Compound 1, Combretastatin A-4]	0.035 ± 0.009	disruption of the tubulin network	0.016 ± 0.01	0.016 to 0.035	0.023 ± 0.012	0.9	–	disruption of the tubulin network
COc1ccc(-c2cc(C)nn2-c2cc(OC)c(OC)c(OC)c2)cc1O [Compound 7i, 3-Methyl-5-(3-hydroxy-4-methoxyphenyl)-1-(3,4,5-trimethoxyphenyl)-1H-pyrazole]	1.12 ± 0.12	–	0.275 ± 0.02	–	0.93 ± 0.13	2.5	130 to 131	–

Source: paper PMC4462585, “Synthesis and Biological Evaluation of 3-Alkyl-1,5-Diaryl-1H-Pyrazoles as Rigid Analogues of Combretastatin A-4 with Potent Antiproliferative Activity” (PLoS ONE, 2015)
